Data: patent US20020077291A1, “Method of treatment of tumors using transforming growth factor-alpha” (priority 2000, published 2002)

Tests used:
[1] = tested on: human epidermal cancer cell tumor (A-431); assay: Effect of TGF-α and cisplatin on tumor growth in the A431 human epidermal cancer MetaMouse model; assay type: in vivo, nude mice; settings: FIGS. 1 and 3; for tumor growth (mean tumor volume): A431 tumor orthotopically implanted in nude mice, cisplatinum 10 mg/kg days 3, 9 (20), TGF-alpha 50 ug/kg days 3-7, 9-13 (20-24), 26 days; for tumor growth inhibition compared with cisplatinum treatment: TGF-alpha alone 50 ug/kg vs cisplatinum 10 mg/kg, A431 model
Description: (§1) Using a nude mouse model and human epidermal cancer cell tumor (A-431), having 10^7 or greater EGF receptors, the inventors investigated whether TGF-alpha would promote tumor growth. In a parallel experiment, the tumor was treated with a chemotherapeutic agent, cisplatinum. […] In a further parallel experiment, the inventors investigated whether TGF-alpha would directly influence the survival of the tumor. […] Five mice in three of the four groups were sacrificed at this time. […] Phase 3 began on day 20.
The study consisted of four groups of nude mice:
1. Group A—control (15 animals); this group was implanted with tumor and treated only with placebo (according to TGF-injection schedule).
2. Group B—TGF-controls (10 animals); this group was implanted with tumor and received only TGF-injection (according to TGF-injection schedule).
(§2) PHASE 1 :On day 1 all animals were orthotopically implanted with tumor in their breast fat flaps (2-3 tumor tissue specimens per animal). On day 3 in the morning the tumor was measured in all animals. Then animals from group B and D received the first injection of TGF-alpha, animals from group A and C received placebo. Six hours later animals from group C and D received cisplatin injection.
(§3) TGF-alpha was injected at a concentration of 1 microgram per mouse (assuming mouse weighs 20 gram) or 50 microgram per kg.
On day 4, day 5, day 6 and day 7 animals from group B and D received additional TGF-alpha injections spaced 24 hours from the first administration; at the same time, animals from group A and C received placebo.
On day 6 the tumor load in all animals was measured again.
On day 8, five animals were randomly selected from group A, C and D for sacrifice. Their tumor load was measured again, their blood drawn and their intestines, kidneys and spleen removed and preserved. The spleen weight was determined at the time of collection.
(§4) Phase 2. […] On day 10, day 11, day 12 and day 13 animals from group B and D received additional TGF-alpha injections spaced 24 hours from the 9th day administration; animals from group A and C receive placebo at the same time.
On day 12 the tumor load in all animals was measured again. On day 15 […]. their tumor load was measured again, their blood drawn and their intestines, kidneys and spleen removed and preserved. The spleen weight was determined at the time of collection.
Phase 3. On day 20 in the morning the tumor load was measured in all remaining animals according to anticancer procedure. Each group of 10 (groups A, B, C, D) mice were divided into two subgroups: for phase 3A, 5 animals in each group were maintained with no further treatments). […]

[2] = background statement; cited from earlier work
[3] = tested on: EGF receptor family (e.g., ErbB1 through 4); settings: background statement; cited from earlier work
[4] = Toxicity (body weight, death) in tumor-bearing nude mice of the A431 model; assay type: in vivo
Text: as §1, with “growth.” for “growth. In a parallel experiment, the tumor was treated with a chemotherapeutic agent, cisplatinum.”
as §2, with “placebo.” for “placebo. Six hours later animals from group C and D received cisplatin injection.”
as §3, §4
Phase 3. On day 20 in the morning the tumor load was measured in all remaining animals according to anticancer procedure. Each group of 10 (groups A, B, C, D) mice were divided into two subgroups: for phase 3A, 5 animals in each group were maintained with no further treatments). For phase 3B, 5 animals from original groups B and D received another injection of TGF-alpha and animals from original group A and C received placebo. […] On day 21, 22, 23 and 24 the five animals from original groups B and D received additional TGF-alpha injections spaced 24 hours from the 20th day of administration; the five selected animals from original group a and c received placebo at the same time. The experiment was terminated on day 26.
body weight—daily for all animals

Compound: N.N.[Cl][Pt][Cl] [cisplatinum, cisplatin, reference compound]
- tumor growth (mean tumor volume) [1]: more effective than the control

Compound: transforming growth factor alpha [TGF-alpha]
- acid and heat stability [2]: acid and heat stable
- binding affinity [3]: high affinity in the nanomolar range
- protection against death caused by the third treatment of cisplatinum ([4]; TGF-alpha 50 ug/kg days 20-24 with cisplatinum 10 mg/kg day 20, FIG. 4): protected against the death
- protection against toxicity of cisplatinum ([4]; TGF-alpha 50 ug/kg given with cisplatinum 10 mg/kg, FIGS. 2 and 4): protected against toxicity of cisplatinum
- body weight ([4]; mean body weight, daily, 26 days, FIGS. 2 and 4, cisplatin effect at the third treatment (day 20)): no effect on body weight
- tumor growth (mean tumor volume) [1]: inhibited tumor growth
- tumor growth inhibition compared with cisplatinum treatment [1]: to the same degree as cisplatinum treatment
- tumor growth inhibition compared with cisplatinum treatment ([1]; listed as TGF-α): as effective as cisplatin
